In brackets after ≈: the same amount, converted by molar mass. One block for each molecule: values may come before it.
Experiments:
Assay in all cases: In vitro antibacterial evaluation: minimum inhibitory concentration (MIC), broth dilution method
Assay type in all cases: cell-based
[1] = system: Streptococcus sp.; conditions: 18 hours at 35° C.
Outline: (§1)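 Using Muller-Hinton II […] and an inoculum of 5×10^5 CFU/mL, antibiotic dilutions from 64 down to 0.06 μg/mL were tested following NCCLS M7-A2. The MIC is the lowest concentration inhibiting growth, including in methicillin-, penicillin- or vancomycin-resistant clinical isolates.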

[2] = system: Enterococcus sp.; conditions: 18 hours at 35° C.
Outline: as §1

[3] = system: Staphylococcus sp.; conditions: for MIC Staphylococcus aureus (ATCC 29213): strain ATCC 29213; for MIC Staphylococcus aureus (GC 1131): strain GC 1131; for MIC Staphylococcus aureus (GC 3051): strain GC 3051; for MIC Staphylococcus aureus (GC 3053): strain GC 3053; for MIC Staphylococcus aureus (GC 4541): strain GC 4541; for MIC Staphylococcus aureus (GC 4542): strain GC 4542; for MIC Staphylococcus aureus-SMITH (GC 4543): strain GC 4543; for MIC Staphylococcus aureus (GC 4544): strain GC 4544; for MIC Staphylococcus aureus (GC 4545): strain GC 4545; for MIC Staphylococcus haemolyticus (GC 4546): strain GC 4546; for MIC Coagulase Negative Staphylococcus (GC 4547): strain GC 4547; for MIC Coagulase Negative Staphylococcus (GC 4548): strain GC 4548; for MIC Coagulase Negative Staphylococcus (GC 4549): strain GC 4549; for MIC Coagulase Negative Staphylococcus (GC 4551): strain GC 4551
Outline: as §1

[4] = system: Escherichia coli; conditions: 18 hours at 35° C.
Outline: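 Broth dilution per NCCLS M7-A2 in Muller-Hinton II […], inoculum 5×10^5 CFU/mL, antibiotic tested over 64-0.06 μg/mL. MIC is taken as the lowest concentration that inhibits growth. Panel includes recent clinical isolates resistant to methicillin, penicillin and/or vancomycin.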

[5] = Streptococcus agalactiae (GC 4564)
[6] = Streptococcus pneumoniae (ATCC 6301)
[7] = Streptococcus pneumoniae (GC 1894)
[8] = Streptococcus pneumoniae (GC 4565)
[9] = Streptococcus pyogenes (GC 4563)
[10] = broth dilution, inoculum 5×10^5 CFU/mL
[11] = Enterococcus faecalis (ATCC 29212)
[12] = Enterococcus faecalis (GC 2242)
[13] = Enterococcus faecalis (GC 2691)
[14] = Enterococcus faecalis (GC 3059)
[15] = Enterococcus faecalis (GC 4552)
[16] = Enterococcus faecalis (GC 4553)
[17] = Enterococcus faecalis (GC 4554)
[18] = Enterococcus faecalis (GC 6189)

- MIC Streptococcus agalactiae (GC 4564) [1, 5]: 16 µg/mL (≈ 9.9 µM)
- MIC Streptococcus pneumoniae (ATCC 6301) [1, 6]: 4 µg/mL (≈ 2.48 µM)
- MIC Streptococcus pneumoniae (GC 1894) [1, 7]: 8 µg/mL (≈ 4.95 µM)
- MIC Streptococcus pneumoniae (GC 4565) [1, 8]: 8 µg/mL (≈ 4.95 µM)
- MIC Streptococcus pyogenes (GC 4563) [1, 9]: 16 µg/mL (≈ 9.9 µM)
- MIC Streptococcus agalactiae (GC 4564) [1, 10]: 16 µg/mL (≈ 9.9 µM)
- MIC Streptococcus pneumoniae (ATCC 6301) [1, 10]: 4 µg/mL (≈ 2.48 µM)
- MIC Streptococcus pneumoniae (GC 1894) [1, 10]: 8 µg/mL (≈ 4.95 µM)
- MIC Streptococcus pneumoniae (GC 4565) [1, 10]: 8 µg/mL (≈ 4.95 µM)
- MIC Streptococcus pyogenes (GC 4563) [1, 10]: 16 µg/mL (≈ 9.9 µM)
- MIC Enterococcus avium (GC 4558) ([2]; Enterococcus avium (GC 4558)): 16 µg/mL (≈ 9.9 µM)
- MIC Enterococcus faecalis (ATCC 29212) [2, 11]: >64 µg/mL
- MIC Enterococcus faecalis (GC 2242) [2, 12]: >64 µg/mL
- MIC Enterococcus faecalis (GC 2691) [2, 13]: >64 µg/mL
- MIC Enterococcus faecalis (GC 3059) [2, 14]: >64 µg/mL
- MIC Enterococcus faecalis (GC 4552) [2, 15]: >64 µg/mL
- MIC Enterococcus faecalis (GC 4553) [2, 16]: 64 µg/mL (≈ 39.6 µM)
- MIC Enterococcus faecalis (GC 4554) [2, 17]: >64 µg/mL
- MIC Enterococcus faecalis (GC 6189) [2, 18]: 64 µg/mL (≈ 39.6 µM)
- MIC Enterococcus faecium (GC 2243) ([2]; Enterococcus faecium (GC 2243)): 64 µg/mL (≈ 39.6 µM)
- MIC Enterococcus faecium (GC 4556) ([2]; Enterococcus faecium (GC 4556)): >64 µg/mL
- MIC Enterococcus faecium (GC 4557) ([2]; Enterococcus faecium (GC 4557)): 8 µg/mL (≈ 4.95 µM)
- MIC Enterococcus avium (GC 4558) [2, 10]: 16 µg/mL (≈ 9.9 µM)
- MIC Enterococcus faecalis (ATCC 29212) [2, 10]: >64 µg/mL
- MIC Enterococcus faecalis (GC 2242) [2, 10]: >64 µg/mL
- MIC Enterococcus faecalis (GC 2691) [2, 10]: >64 µg/mL
- MIC Enterococcus faecalis (GC 3059) [2, 10]: >64 µg/mL
- MIC Enterococcus faecalis (GC 4552) [2, 10]: >64 µg/mL
- MIC Enterococcus faecalis (GC 4553) [2, 10]: 64 µg/mL (≈ 39.6 µM)
- MIC Enterococcus faecalis (GC 4554) [2, 10]: >64 µg/mL
- MIC Enterococcus faecalis (GC 6189) [2, 10]: 64 µg/mL (≈ 39.6 µM)
- MIC Enterococcus faecium (GC 2243) [2, 10]: 64 µg/mL (≈ 39.6 µM)
- MIC Enterococcus faecium (GC 4556) [2, 10]: >64 µg/mL
- MIC Enterococcus faecium (GC 4557) [2, 10]: 8 µg/mL (≈ 4.95 µM)
- MIC Staphylococcus aureus (ATCC 29213) [3]: 32 µg/mL (≈ 19.8 µM)
- MIC Staphylococcus aureus (GC 1131) [3]: 16 µg/mL (≈ 9.9 µM)
- MIC Staphylococcus aureus (GC 3051) [3]: 64 µg/mL (≈ 39.6 µM)
- MIC Staphylococcus aureus (GC 3053) [3]: 64 µg/mL (≈ 39.6 µM)
- MIC Staphylococcus aureus (GC 4541) [3]: 16 µg/mL (≈ 9.9 µM)
- MIC Staphylococcus aureus (GC 4542) [3]: 64 µg/mL (≈ 39.6 µM)
- MIC Staphylococcus aureus-SMITH (GC 4543) [3]: 16 µg/mL (≈ 9.9 µM)
- MIC Staphylococcus aureus (GC 4544) [3]: 32 µg/mL (≈ 19.8 µM)
- MIC Staphylococcus aureus (GC 4545) [3]: 32 µg/mL (≈ 19.8 µM)
- MIC Coagulase Negative Staphylococcus (GC 4547) [3]: 32 µg/mL (≈ 19.8 µM)
- MIC Coagulase Negative Staphylococcus (GC 4548) [3]: 8 µg/mL (≈ 4.95 µM)
- MIC Coagulase Negative Staphylococcus (GC 4549) [3]: 8 µg/mL (≈ 4.95 µM)
- MIC Coagulase Negative Staphylococcus (GC 4551) [3]: 16 µg/mL (≈ 9.9 µM)
- MIC Coagulase Negative Staphylococcus (GC 6257) ([3]; strain GC 6257): 4 µg/mL (≈ 2.48 µM)
- MIC Escherichia coli (ATCC 25922) [4]: 32 µg/mL (≈ 19.8 µM)
- MIC Escherichia coli (GC 4559) [4]: 64 µg/mL (≈ 39.6 µM)
- MIC Escherichia coli (GC 4560) [4]: 16 µg/mL (≈ 9.9 µM)
Structure (SMILES): Cc1ccc(Oc2cccc(C3OCC4OC(OC5C(CO)OC(Oc6ccc(CC7NC(=O)C(C(C)c8ccccc8)NC(=O)CNC(=O)C(CO)NC(=O)C(C(O)C8CNC(=N)N8C8OC(CO)C(O)C(O)C8O)NC(=O)C(C(O)C8CNC(=N)N8)NC7=O)cc6I)C(O)C5O)C(O)C(O)C4O3)c2)cc1 (stereo not shown) [Example 197]
- MIC Staphylococcus haemolyticus (GC 4546) [3]: 32 µg/mL (≈ 19.8 µM)

- MIC Streptococcus agalactiae (GC 4564) [1, 5]: <0.12 µg/mL
- MIC Streptococcus pneumoniae (ATCC 6301) [1, 6]: <0.12 µg/mL
- MIC Streptococcus pneumoniae (GC 1894) [1, 7]: <0.12 µg/mL
- MIC Streptococcus pneumoniae (GC 4565) [1, 8]: <0.12 µg/mL
- MIC Streptococcus pyogenes (GC 4563) [1, 9]: <0.12 µg/mL
- MIC Streptococcus agalactiae (GC 4564) [1, 10]: <0.12 µg/mL
- MIC Streptococcus pneumoniae (ATCC 6301) [1, 10]: <0.12 µg/mL
- MIC Streptococcus pneumoniae (GC 1894) [1, 10]: <0.12 µg/mL
- MIC Streptococcus pneumoniae (GC 4565) [1, 10]: <0.12 µg/mL
- MIC Streptococcus pyogenes (GC 4563) [1, 10]: <0.12 µg/mL
- MIC Enterococcus avium (GC 4558) ([2]; Enterococcus avium (GC 4558)): 1 µg/mL (≈ 0.713 µM)
- MIC Enterococcus faecalis (ATCC 29212) [2, 11]: 1 µg/mL (≈ 0.713 µM)
- MIC Enterococcus faecalis (GC 2242) [2, 12]: 1 µg/mL (≈ 0.713 µM)
- MIC Enterococcus faecalis (GC 2691) [2, 13]: 1 µg/mL (≈ 0.713 µM)
- MIC Enterococcus faecalis (GC 3059) [2, 14]: 1 µg/mL (≈ 0.713 µM)
- MIC Enterococcus faecalis (GC 4552) [2, 15]: 1 µg/mL (≈ 0.713 µM)
- MIC Enterococcus faecalis (GC 4553) [2, 16]: 1 µg/mL (≈ 0.713 µM)
- MIC Enterococcus faecalis (GC 4554) [2, 17]: 1 µg/mL (≈ 0.713 µM)
- MIC Enterococcus faecalis (GC 6189) [2, 18]: 1 µg/mL (≈ 0.713 µM)
- MIC Enterococcus faecium (GC 2243) ([2]; Enterococcus faecium (GC 2243)): 1 µg/mL (≈ 0.713 µM)
- MIC Enterococcus faecium (GC 4556) ([2]; Enterococcus faecium (GC 4556)): 1 µg/mL (≈ 0.713 µM)
- MIC Enterococcus faecium (GC 4557) ([2]; Enterococcus faecium (GC 4557)): 1 µg/mL (≈ 0.713 µM)
- MIC Enterococcus avium (GC 4558) [2, 10]: 1 µg/mL (≈ 0.713 µM)
- MIC Enterococcus faecalis (ATCC 29212) [2, 10]: 1 µg/mL (≈ 0.713 µM)
- MIC Enterococcus faecalis (GC 2242) [2, 10]: 1 µg/mL (≈ 0.713 µM)
- MIC Enterococcus faecalis (GC 2691) [2, 10]: 1 µg/mL (≈ 0.713 µM)
- MIC Enterococcus faecalis (GC 3059) [2, 10]: 1 µg/mL (≈ 0.713 µM)
- MIC Enterococcus faecalis (GC 4552) [2, 10]: 1 µg/mL (≈ 0.713 µM)
- MIC Enterococcus faecalis (GC 4553) [2, 10]: 1 µg/mL (≈ 0.713 µM)
- MIC Enterococcus faecalis (GC 4554) [2, 10]: 1 µg/mL (≈ 0.713 µM)
- MIC Enterococcus faecalis (GC 6189) [2, 10]: 1 µg/mL (≈ 0.713 µM)
- MIC Enterococcus faecium (GC 2243) [2, 10]: 1 µg/mL (≈ 0.713 µM)
- MIC Enterococcus faecium (GC 4556) [2, 10]: 1 µg/mL (≈ 0.713 µM)
- MIC Enterococcus faecium (GC 4557) [2, 10]: 1 µg/mL (≈ 0.713 µM)
- MIC Staphylococcus aureus (ATCC 29213) [3]: 0.5 µg/mL (≈ 0.356 µM)
- MIC Staphylococcus aureus (GC 1131) [3]: 1 µg/mL (≈ 0.713 µM)
- MIC Staphylococcus aureus (GC 3051) [3]: 0.5 µg/mL (≈ 0.356 µM)
- MIC Staphylococcus aureus (GC 3053) [3]: 0.5 µg/mL (≈ 0.356 µM)
- MIC Staphylococcus aureus (GC 4541) [3]: 0.5 µg/mL (≈ 0.356 µM)
- MIC Staphylococcus aureus (GC 4542) [3]: 0.25 µg/mL (≈ 0.178 µM)
- MIC Staphylococcus aureus-SMITH (GC 4543) [3]: 0.5 µg/mL (≈ 0.356 µM)
- MIC Staphylococcus aureus (GC 4544) [3]: 0.5 µg/mL (≈ 0.356 µM)
- MIC Staphylococcus aureus (GC 4545) [3]: 0.5 µg/mL (≈ 0.356 µM)
- MIC Coagulase Negative Staphylococcus (GC 4547) [3]: 1 µg/mL (≈ 0.713 µM)
- MIC Coagulase Negative Staphylococcus (GC 4548) [3]: >0.12 µg/mL
- MIC Coagulase Negative Staphylococcus (GC 4549) [3]: 0.5 µg/mL (≈ 0.356 µM)
- MIC Coagulase Negative Staphylococcus (GC 4551) [3]: 0.5 µg/mL (≈ 0.356 µM)
- MIC Escherichia coli (ATCC 25922) [4]: 32 µg/mL (≈ 22.8 µM)
- MIC Escherichia coli (GC 4559) [4]: 32 µg/mL (≈ 22.8 µM)
- MIC Escherichia coli (GC 4560) [4]: 1 µg/mL (≈ 0.713 µM)
Structure (SMILES): N=C1NCC(C(O)C2NC(=O)C(Cc3ccc(OC4OC(CO)C(OC5OC6COC(CCc7ccccc7)OC6C(O)C5O)C(O)C4O)cc3)NC(=O)C(CC3CCCCC3)NC(=O)CNC(=O)C(CO)NC(=O)C(C(O)C3CNC(=N)N3C3OC(CO)C(O)C(O)C3O)NC2=O)N1 (stereo not shown) [Example 198, Cyclo[3-cyclohexylalanyl-O-[4-O-[4,6-O-(3-phenylpropylidene)hexopyranosyl]hexopyranosyl]tyrosyl-3-(2-iminoimidazolidin-4-yl)seryl-3-(3-hexopyranosyl-2-iminoimidazolidin-4-yl)serylserylglycyl]]
- MIC Staphylococcus haemolyticus (GC 4546) [3]: 0.5 µg/mL (≈ 0.356 µM)
